Laboratory results as given in US12559504B2, “Benzotriazole derivative” (UBE CORPORATION, priority 2019, dated 2026).

Legend:
[1] = Metabolism test using human liver microsome fractions; format: in vitro ADME; details: human liver microsomes, test compound 10 μmol/L, NADPH and UDP-glucuronic acid, 37° C.
Summary of the method: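 Compound depletion at 10 μmol/L final, 37 °C, followed by UV-HPLC of acetonitrile-quenched aliquots taken 0, 5, 10, 15, 20, 30 min; incubations contained microsomes (1 mg protein, human or monkey) with NADPH and UDPGA cofactors. Rate = slope over linear range.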

NQO1 [2] = experiment: NQO1 expression induction test in mouse kidney (single administration); format: in vivo; details: Mus musculus, po, 6 h, BALB/c mouse kidney, 6 hours after administration, ratio to control group
Summary of the method: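 Female BALB/c mice received a single oral dose of compound in 0.5% methylcellulose, with untreated mice as controls. Six hours later, left-kidney NQO1 mRNA was measured by SYBR real-time RT-PCR normalised to GAPDH. Induction was expressed as the ratio of mean treated to mean control expression.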

[3] = target: T1, GST fusion human Keap1 (amino acid residue: 325-624) protein (Homo sapiens, UniProt Q14145); experiment: Keap1-Nrf2 binding inhibition test (fluorescence polarization); details: compound concentration of 100 nM; read-out: inhibition rate
T1 construct: GST fusion human Keap1 (amino acid residue: 325-624) protein; purchased Protein tech Ag0779
T1 sequence (Q14145 325-624): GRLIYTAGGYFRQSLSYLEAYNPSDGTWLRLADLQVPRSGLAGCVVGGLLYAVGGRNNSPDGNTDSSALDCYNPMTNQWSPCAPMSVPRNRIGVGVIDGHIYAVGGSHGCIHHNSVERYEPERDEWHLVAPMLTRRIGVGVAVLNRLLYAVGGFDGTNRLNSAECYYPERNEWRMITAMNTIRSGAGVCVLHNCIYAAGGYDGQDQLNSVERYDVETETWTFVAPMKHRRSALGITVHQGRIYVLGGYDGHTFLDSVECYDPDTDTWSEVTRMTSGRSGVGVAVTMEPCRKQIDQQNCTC
Summary of the method: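 Fluorescence polarization with FITC-labelled Nrf2 peptide (FITC-Ahx-LDEETGEFL-NH2) and GST-human Keap1 (325-624) in 20 mM Tris pH 7.5, 150 mM NaCl, 0.05% Tween 20, 5 mM DTT, BSA; 30 min at room temperature, ex 482/em 530 nm. Percent inhibition at 100 nM compound, Keap1-free wells = 100%.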

NQO1 [4] = experiment: NQO1 enzyme induction test (in vitro) in Hepa1c1c7 cells; format: cell-based; details: Mus musculus, Hepa-1c1c7, 48 h, concentration to elevate the NQO1 activity by 1.5 times, about 48 hours, read-out: EC150
Method: Each NQO1 assay was carried out by modifying a known method (Anal Biochem 1998; 169: 328-, Methods Enzymol 2004; 382: 243-). Hepa1c1c7 cells (mouse hepatocyte line manufacture by DS Pharma Biomedical Co., Ltd., REF. No. 95090613) were cultured (5% CO2, 37° C.). The cells were cultured in MEMα (manufactured by FUJIFILM Wako Pure Chemical Corporation, REF. 135-15175) medium comprising 10% FBS (manufactured by GIBCO, REF. 10082) and […]/streptomycin/amphotericin B (manufactured by GIBCO, REF. 15240), and dispensed into a 96 well plate (manufactured by Costar, REF. 3610) at 2.0×10^3 cells/well. On the next day, test compound (final concentration of […]: 0.1%) dissolved into DMSO (manufactured by FUJIFILM Wako Pure Chemical Corporation, REF. 043-07216) was added to each well, and the plate was further cultured for about 48 hours.
A cell lysate manufactured by Cell signaling Technology, Inc. (REF. 9803) with the addition of a Protease Inhibitor manufactured by Roche Diagnostics K.K. (REF. 11-873580001) was used. A reaction solution (which is a solution comprising trishydrochloric acid (25 mM), albumin […], Tween-20 (0.01%), glucose-6-phosphate dehydrogenase (2 U/mL), flavin-adenine dinucleotide (5 μM), glucose-6-phosphate (1 μM), nicotinamide adenine dinucleotide phosphate (30 μM), 3-(4,5-dimethyl-2-thiazolyl)-2,5-diphenyltetrazolium bromide (MTT) (0.03%), and menadione (50 μM)), and a stop solution (which is a solution comprising dicumarol (0.3 mM) and potassium dihydrogen phosphate (5 mM), pH 7.4) were prepared. After the medium was removed, cell lysate (50 μL) was added thereto, and the resulting mixture was shaken at room temperature for 20 minutes. The reaction solution (200 μL) was added thereto, and the resulting mixture was left to stand at room temperature for 5 minutes. The stop solution (50 μL) was added thereto, and absorbance at 540 nm (reference 750 nm) was measured.
Cell number was measured by Cell Titer Glo assay (manufactured by Promega Corporation, REF. G9242) by using another plate prepared according to the same conditions as those described above, and correction of absorbance was carried out. The test result was analyzed by Excel, and the EC150 value which is the concentration to elevate the NQO1 activity by 1.5 times was calculated.

inhibition at 0.1 µM [3] [%]	SMILES	Human metabolic rate [1]	fold induction at 30 mg/kg (NQO1 [2])	EC (1.5-fold NQO1 activity) (NQO1 [4]) [µM]	fold induction at 20 mg/kg (NQO1 [2])
≥ 50	CC[C@@H]1CN(Cc2cc(C(c3ccc4c(nnn4C)c3C)C(C)(C)C(=O)O)ccc2C)Cc2ccc3ncccc3c2O1 (stereo partly drawn) [Example 28-(b), 3-(1,4-dimethyl-1H-benzo[d][1,2,3]triazol-5-yl)-3-(3-(((R)-2-ethyl-2,3-dihydro-[1,4]oxazepino[7,6-f]quinolin-4(5H)-yl)methyl)-4-methylphenyl)-2,2-dimethylpropanoic Acid]		3 to 6	0.0005 to 0.005	
≥ 50	CC[C@@H]1CN(Cc2cc(C(c3ccc4c(nnn4C)c3C)C3(C(=O)O)CCC3)ccc2C)Cc2cc3ncccc3cc2O1 (stereo partly drawn) [Example 84-(b), 1-((1,4-dimethyl-1H-benzo[d][1,2,3]triazol-5-yl) (3-(((R)-2-ethyl-2,3-dihydro-[1,4]oxazepino[7,6-g]quinolin-4 (5H)-yl)methyl)-4-methylphenyl)methyl)cyclobutane-1-carboxylic Acid]	C (150≤metabolic rate<200 pmol/min/mg protein)		0.0005 to 0.005	> 6
≥ 50	CC[C@@H]1CN(Cc2cc(C(c3ccc4c(nnn4C)c3C)C(C)(C)C(=O)O)ccc2C)Cc2cc(Cl)c3ccccc3c2O1 (stereo partly drawn) [Example 67-(b), 3-(3-(((R)-7-chloro-2-ethyl-2,3-dihydronaphtho[2,1-f][1,4]oxazepin-4 (5H)-yl)methyl)-4-methylphenyl)-3-(1,4-dimethyl-1H-benzo[d][1,2,3]triazol-5-yl)-2,2-dimethylpropanoic Acid]			0.005 to 0.05	≤ 3
≥ 50	CC[C@@H]1CN(Cc2cc(C(c3ccc4c(nnn4C)c3C)C(C)(C)C(=O)O)ccc2C)Cc2ccc3ccncc3c2O1 (stereo partly drawn) [Example 62, 3-(1,4-dimethyl-1H-benzo[d][1,2,3]triazol-5-yl)-3-(3-(((R)-2-ethyl-2,3-dihydro-[1,4]oxazepino[6,7-h]isoquinolin-4 (5H)-yl)methyl)-4-methylphenyl)-2,2-dimethylpropanoic Acid]		≤ 3	0.0005 to 0.005	
≥ 50	CC[C@@H]1CN(Cc2cc(C(c3ccc4c(nnn4C)c3C)C(C)(C)C(=O)O)ccc2C)Cc2ccc3cccnc3c2O1 (stereo partly drawn) [Example 27-(b), 3-(1,4-dimethyl-1H-benzo[d][1,2,3]triazol-5-yl)-3-(3-(((R)-2-ethyl-2,3-dihydro-[1,4]oxazepino[6,7-h]quinolin-4 (5H)-yl)methyl)-4-methylphenyl)-2,2-dimethylpropanoic Acid]		≤ 3	0.005 to 0.05	

The remaining lines, values behind:

SMILES	inhibition at 0.1 µM [3] [%]	Human metabolic rate [1]	fold induction at 30 mg/kg (NQO1 [2])	EC (1.5-fold NQO1 activity) (NQO1 [4]) [µM]	fold induction at 20 mg/kg (NQO1 [2])
CC[C@@H]1CN(Cc2cc(C(c3ccc4c(nnn4C)c3C)C(C)(C)C(=O)O)ccc2C)Cc2cc3cn[nH]c3cc2O1 (stereo partly drawn) [Example 15-(b), 3-(1,4-dimethyl-1H-benzo[d][1,2,3]triazol-5-yl)-3-(3-(((R)-8-ethyl-1,5,7,8-tetrahydro-6H-[1,4]oxazepino[6,7-f]indazol-6-yl)methyl)-4-methylphenyl)-2,2-dimethylpropanoic Acid]	≥ 50	E (metabolic rate≥250 pmol/min/mg protein)	3 to 6	0.0005 to 0.005	
CC[C@@H]1CN(Cc2cc(C(c3ccc4c(nnn4C)c3C)C(C)(C)C(=O)O)ccc2C)Cc2c(ccc3ncccc23)O1 (stereo partly drawn) [Example 18-(b), 3-(1,4-dimethyl-1H-benzo[d][1,2,3]triazol-5-yl)-3-(3-(((R)-4-ethyl-3,4-dihydro-[1,4]oxazepino[6,7-f]quinolin-2(1H)-yl)methyl)-4-methylphenyl)-2,2-dimethylpropanoic Acid]	≥ 50	E (metabolic rate≥250 pmol/min/mg protein)	3 to 6	0.005 to 0.05	
CC[C@@H]1CN(Cc2cc(C(c3ccc4c(nnn4C)c3C)C(C)(C)C(=O)O)ccc2C)Cc2nc3ccccc3cc2O1 (stereo partly drawn) [Example 10-(b), 3-(1,4-dimethyl-1H-benzo[d][1,2,3]triazol-5-yl)-3-(3-(((R)-2-ethyl-2,3-dihydro-[1,4]oxazepino[6,7-b]quinolin-4 (5H)-yl)methyl)-4-methylphenyl)-2,2-dimethylpropanoic Acid]	≥ 50	C (150≤metabolic rate<200 pmol/min/mg protein)	> 6	0.0005 to 0.005	
CC[C@@H]1CN(Cc2cc(C(c3ccc4c(nnn4C)c3C)C(C)(C)C(=O)O)ccc2C)Cc2cc3c(cc2O1)CCCC3 (stereo partly drawn) [Example 4-(b), 3-(1,4-dimethyl-1H-benzo[d][1,2,3]triazol-5-yl)-3-(3-(((R)-2-ethyl-2,3,7,8,9,10-hexahydronaphtho[2,3-f][1,4]oxazepin-4(5H)-yl)methyl)-4-methylphenyl)-2,2-dimethylpropanoic Acid]	≥ 50	B (100≤metabolic rate<150 pmol/min/mg protein)	> 6	0.005 to 0.05	
CC[C@@H]1CN(Cc2cc(C(c3ccc4c(nnn4C)c3C)C(C)(C)C(=O)O)ccc2C)Cc2c(ccc3ccccc23)O1 (stereo partly drawn) [Example 16-(b), 3-(1,4-dimethyl-1H-benzo[d][1,2,3]triazol-5-yl)-3-(3-(((R)-4-ethyl-3,4-dihydronaphtho[1,2-f][1,4]oxazepin-2(1H)-yl)methyl)-4-methylphenyl)-2,2-dimethylpropanoic Acid]	≥ 50	E (metabolic rate≥250 pmol/min/mg protein)	≤ 3	0.05 to 0.5	
CC[C@@H]1CN(Cc2cc(C(c3ccc4c(nnn4C)c3C)C(C)(C)C(=O)O)ccc2C)Cc2ccc3c(c2O1)CCC3 (stereo partly drawn) [Example 6-(b), 3-(1,4-dimethyl-1H-benzo[d][1,2,3]triazol-5-yl)-3-(3-(((R)-2-ethyl-2,3,5,8,9,10-hexahydro-4H-indeno[5,4-f][1,4]oxazepin-4-yl)methyl)-4-methylphenyl)-2,2-dimethylpropanoic Acid]	≥ 50	B (100≤metabolic rate<150 pmol/min/mg protein)	3 to 6	0.005 to 0.05	
CC[C@@H]1CN(Cc2cc(C(c3ccc4c(nnn4C)c3C)C(C)(C)C(=O)O)ccc2C)Cc2cc3ncccc3cc2O1 (stereo partly drawn) [Example 12-(b), 3-(1,4-dimethyl-1H-benzo[d][1,2,3]triazol-5-yl)-3-(3-(((R)-2-ethyl-2,3-dihydro-[1,4]oxazepino[7,6-g]quinolin-4 (5H)-yl)methyl)-4-methylphenyl)-2,2-dimethylpropanoic Acid]	≥ 50	D (200≤metabolic rate<250 pmol/min/me protein)	> 6	0.0005 to 0.005	
CC[C@@H]1CN(Cc2cc(C(c3ccc4c(nnn4C)c3C)C(C)(C)C(=O)O)ccc2C)Cc2ccc3ccccc3c2O1 (stereo partly drawn) [Example 24-(b), 3-(1,4-dimethyl-1H-benzo[d][1,2,3]triazol-5-yl)-3-(3-(((R)-2-ethyl-2,3-dihydronaphtho[2,1-f][1,4]oxazepin-4(5H)-yl)methyl)-4-methylphenyl)-2,2-dimethylpropanoic Acid]	≥ 50		> 6	0.005 to 0.05	
